Results taken from patent publication EP0306904A2, “Phosphoric acid diesters and salts thereof” (Senju Pharmaceutical Co., Ltd., priority 1987, dated 1989).

Tests used:
[1] = tested on: mixture micelles, which were prepared from phospholipid (egg lecithin) and ethanol; assay: Anti-oxidative activity: oxidation of mixture micelles (egg lecithin and ethanol) by ferrous-ion/ascorbic acid, thiobarbituric acid readout; assay type: biochemical; conditions: for Rate of inhibition (%): 25 °C, 15 min, ferrous sulfate/sodium ascorbate; for inhibition of oxidation: summary in words of the micelle oxidation results
Method: Anti-oxidative activity of the compounds prepared in example 1 and example 4 were determined using, as an index, oxidation of mixture micelles, which were prepared from phospholipid (egg lecithin) and ethanol, by ferrous-ion/ascorbic acid
To a solution of approx. 78 mg of egg lecithin in 2 ml of ethanol was added gradually 5 mM HEPES buffer solution (pH 7.2), under sonication (50 W) and ice-cooling, to make a 100-ml suspension. To 1,000 µ l of the suspension were added 200 µ l of 2.6 x 10⁻⁴ M solution of one of the test compounds in 50 v/v % ethanol, 50 µ l of 5.0 x 10⁻⁵ M sodium ascorbate solution in water and 50 µ l of 2.5 x 10⁻⁶ M ferrous sulfate solution in water. The mixture was placed in a water bath at 25 °C for 15 min for oxidation. Instantly after the reaction, 50 µ l of 0.1 % hydroquinone solution in ethanol was added to stop the reaction. To the mixture were added 200 µ l of 20 w/v % trichloroacetic acid and 2,000 µ l of 50 v/v % acetic acid containing thiobarbituric acid (Merck) at the concentration of 0.35 %, followed by heating for 15 min under reflux at 100 °C. After cooling, absorp tion within the range of 450-600 nm was measured by spectrophotography, within which range increase in absorbance at approx. 530-540 nm was determined. […]

lens = assay: Anti-oxidative activity in a model employing UV-induced oxidation of the lens
[2] = Final concentration 4.0 x 10⁻⁵ (unit not given; M)
[3] = Final concentration 4.0 x 10⁻⁶ (unit not given; M)

| Structure (SMILES) | Rate of inhibition (%) [1, 2] | Rate of inhibition (%) [1, 3] | inhibition of oxidation [1] | inhibition of accumulation of malonedialdehyde (lens) |
| --- | --- | --- | --- | --- |
| Cc1c(C)c2c(c(C)c1OP(=O)([O-])OC1=C(O)[C@@H]([C@@H](O)CO)OC1=O)CCC(C)(CCCC(C)CCCC(C)C)O2.[K+] (stereo partly drawn) [Example 1, potassium salt of phosphoric acid (L-ascorbic acid-2-0)(2,5,7,8-tetramethyl-2-(4,8-dimethylnonyl)chromanyl-6) ester] | 94.44% | 89.57% | nearly complete inhibition of oxidation | significant inhibition |
| Cc1c(C)c2c(c(C)c1OP(=O)([O-])OC1=C(O)[C@@H]([C@@H](O)CO)OC1=O)CCC(C)(CCCC(C)CCCC(C)CCCC(C)CCCC(C)C)O2.[K+] (stereo partly drawn) [Example 4, potassium salt of phosphoric acid (L-ascorbic acid-2-0)(2,5,7,8-tetramethyl-2-(4,8,12,16-tetramethylheptadecyl)chromanyl-6) ester] | 99.90% | 95.22% | nearly complete inhibition of oxidation | significant inhibition |
